Data reported in patent publication US8765773B2, “Substituted hydroxamic acids and uses thereof” (Millennium Pharmaceuticals, Inc., priority 2010, dated 2014).

Target: T1, purified human HDAC6 (Homo sapiens, UniProt Q9UBN7)
T1 construct: purchased BPS Bioscience 5006
T1 sequence (Q9UBN7 1-1215): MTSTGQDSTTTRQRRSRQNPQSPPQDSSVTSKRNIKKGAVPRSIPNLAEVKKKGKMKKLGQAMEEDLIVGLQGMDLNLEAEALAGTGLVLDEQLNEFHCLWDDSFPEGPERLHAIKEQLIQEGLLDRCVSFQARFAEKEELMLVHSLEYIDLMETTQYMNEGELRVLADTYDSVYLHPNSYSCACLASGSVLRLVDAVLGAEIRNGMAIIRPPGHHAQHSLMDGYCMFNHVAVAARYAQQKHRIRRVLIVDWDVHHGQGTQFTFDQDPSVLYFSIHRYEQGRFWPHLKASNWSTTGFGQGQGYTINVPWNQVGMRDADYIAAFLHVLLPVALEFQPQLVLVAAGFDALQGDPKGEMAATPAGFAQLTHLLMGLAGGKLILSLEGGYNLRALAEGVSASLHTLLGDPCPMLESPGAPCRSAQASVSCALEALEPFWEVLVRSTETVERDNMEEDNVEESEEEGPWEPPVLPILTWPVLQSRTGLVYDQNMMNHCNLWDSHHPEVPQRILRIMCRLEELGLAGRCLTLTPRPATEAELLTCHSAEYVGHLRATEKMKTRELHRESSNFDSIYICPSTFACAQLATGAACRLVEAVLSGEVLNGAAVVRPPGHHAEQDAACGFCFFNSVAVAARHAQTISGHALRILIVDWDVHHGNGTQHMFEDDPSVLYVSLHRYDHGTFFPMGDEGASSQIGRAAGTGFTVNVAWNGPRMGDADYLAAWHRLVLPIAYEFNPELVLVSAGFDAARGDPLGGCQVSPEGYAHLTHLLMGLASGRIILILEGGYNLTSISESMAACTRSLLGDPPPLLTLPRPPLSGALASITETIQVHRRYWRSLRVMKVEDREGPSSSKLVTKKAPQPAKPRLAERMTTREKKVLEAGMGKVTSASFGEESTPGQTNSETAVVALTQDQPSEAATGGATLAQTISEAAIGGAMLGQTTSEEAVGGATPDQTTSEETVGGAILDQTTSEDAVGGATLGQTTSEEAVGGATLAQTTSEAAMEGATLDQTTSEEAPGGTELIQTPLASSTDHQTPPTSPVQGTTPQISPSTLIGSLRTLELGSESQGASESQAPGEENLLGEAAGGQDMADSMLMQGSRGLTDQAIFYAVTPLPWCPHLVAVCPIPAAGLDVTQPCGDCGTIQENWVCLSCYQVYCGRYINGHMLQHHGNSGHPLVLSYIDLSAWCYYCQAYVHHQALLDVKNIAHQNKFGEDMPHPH
Assay: HDAC6 Enzyme Assay
Format: biochemical
Settings: compound concentration 0.37 μM, read-out: Percent Inhibition
Outline: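 Purified human HDAC6 incubated 1 h at 30° C with Ac-Arg-Gly-Lys(Ac)-AMC peptide plus compound or DMSO; stopped with trichostatin A. Deacetylated product trypsin-digested, released AMC read by fluorescence (Ex 340/Em 460 nm). Percent inhibition at one concentration or IC50 from curves relative to DMSO controls.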

SMILES	inhibition at 0.37 µM [%]
CC(C)Cc1nc2cc(C(=O)NO)ccc2c(=O)[nH]1 [Compound I-402, N-hydroxy-2-isobutyl-4-oxo-3,4-dihydroquinazoline-7-carboxamide]	91.7
COc1ccc(-c2cccc(CCn3cnc4ccc(C(=O)NO)cc4c3=O)c2)cn1 [Compound I-329, N-hydroxy-3-{2-[3-(6-methoxypyridin-3-yl)phenyl]ethyl}-4-oxo-3,4-dihydroquinazoline-6-carboxamide]	92.6
CCC(C)c1nc2cc(C(=O)NO)ccc2c(=O)n1Cc1ccc(C(F)(F)F)cc1 (stereo not shown) [Compound I-100, 2-sec-butyl-N-hydroxy-4-oxo-3-[4-(trifluoromethyl)benzyl]-3,4-dihydroquinazoline-7-carboxamide]	90.6
O=C(NO)c1ccc2c(=O)[nH]c(CCc3ccccc3)nc2c1 [Compound I-408, N-hydroxy-4-oxo-2-(2-phenylethyl)-3,4-dihydroquinazoline-7-carboxamide]	94.9
CN(C)c1ccc(-c2nc3cc(C(=O)NO)ccc3c(=O)n2Cc2ccc(C(F)(F)F)cc2)cc1 [Compound I-274, 2-[4-(dimethylamino)phenyl]-N-hydroxy-4-oxo-3-[4-(trifluoromethyl)benzyl]-3,4-dihydroquinazoline-7-carboxamide]	78.8
CC(=O)Nc1ccc(-c2cccc(CCn3cnc4ccc(C(=O)NO)cc4c3=O)c2)cc1 [Compound I-334, 3-{2-[4′-(acetylamino)biphenyl-3-yl]ethyl}-N-hydroxy-4-oxo-3,4-dihydroquinazoline-6-carboxamide]	93.8
O=C(NO)c1ccc2c(Br)cn(Cc3ccccc3)c(=O)c2c1 [Compound I-292, 2-benzyl-4-bromo-N-hydroxy-1-oxo-1,2-dihydroisoquinoline-7-carboxamide]	82.8
O=C(O)c1ccc(-c2cccc(CCn3cnc4ccc(C(=O)NO)cc4c3=O)c2)cc1 [Compound I-321, 3′-{2-[6-[(hydroxyamino)carbonyl]-4-oxoquinazolin-3(4H)-yl]ethyl}biphenyl-4-carboxylic acid]	87.3
O=C(NO)c1ccc2ncn(Cc3cccc(-c4ccc(C(F)(F)F)cc4)c3)c(=O)c2c1 [Compound I-69, N-hydroxy-4-oxo-3-{[4′-(trifluoromethyl)biphenyl-3-yl]methyl}-3,4-dihydroquinazoline-6-carboxamide]	82

Same assay, conditions: compound concentration 0.412 μM, read-out: Percent Inhibition

SMILES	inhibition at 0.412 µM [%]
O=C(NO)c1ccc2c(=O)n(CC3CC3)cnc2c1 [Compound I-59, 3-(cyclopropylmethyl)-N-hydroxy-4-oxo-3,4-dihydroquinazoline-7-carboxamide]	80.7
O=C(NO)c1ccc2ccn(Cc3ccccc3F)c(=O)c2c1 [Compound I-122, 2-(2-fluorobenzyl)-N-hydroxy-1-oxo-1,2-dihydroisoquinoline-7-carboxamide]	94.6
CC(C)(C)OC(=O)N1CCC(CCn2ccc3ccc(C(=O)NO)cc3c2=O)CC1 [Compound I-58, tert-butyl 4-{2-[7-[(hydroxyamino)carbonyl]-1-oxoisoquinolin-2(1H)-yl]ethyl}piperidine-1-carboxylate]	80.4
O=C(NO)c1ccc2ccn(CCCc3ccncc3)c(=O)c2c1 [Compound I-118, N-hydroxy-1-oxo-2-(3-pyridin-4-ylpropyl)-1,2-dihydroisoquinoline-7-carboxamide]	93.3
Cc1ccccc1OCCCn1ccc2ccc(C(=O)NO)cc2c1=O [Compound I-38, N-hydroxy-2-[3-(2-methylphenoxy)propyl]-1-oxo-1,2-dihydroisoquinoline-7-carboxamide]	96.1
O=C(NO)c1ccc2ccn(Cc3nc4ccccc4s3)c(=O)c2c1 [Compound I-272, 2-(1,3-benzothiazol-2-ylmethyl)-N-hydroxy-1-oxo-1,2-dihydroisoquinoline-7-carboxamide]	97.5
O=C(NO)c1ccc2ccn(Cc3ccc(-n4cncn4)cc3)c(=O)c2c1 [Compound I-223, N-hydroxy-1-oxo-2-[4-(1H-1,2,4-triazol-1-yl)benzyl]-1,2-dihydroisoquinoline-7-carboxamide]	94.9
O=C(NO)c1ccc2ccn(C(c3ccccc3)c3ccccc3)c(=O)c2c1 [Compound I-19, 2-(diphenylmethyl)-N-hydroxy-1-oxo-1,2-dihydroisoquinoline-7-carboxamide]	94.4
CC(C)Cc1nc2cc(C(=O)NO)ccc2c(=O)n1Cc1ccc(C(F)(F)F)cc1 [Compound I-81, N-hydroxy-2-isobutyl-4-oxo-3-[4-(trifluoromethyl)benzyl]-3,4-dihydroquinazoline-7-carboxamide]	76.7
O=C(NO)c1ccc2ccn(C3c4ccccc4-c4ccccc43)c(=O)c2c1 [Compound I-201, 2-(9H-fluoren-9-yl)-N-hydroxy-1-oxo-1,2-dihydroisoquinoline-7-carboxamide]	88.8
CC(C)(C)c1ccc(Cn2cnc3ccc(C(=O)NO)cc3c2=O)cc1 [Compound I-288, 3-(4-tert-butylbenzyl)-N-hydroxy-4-oxo-3,4-dihydroquinazoline-6-carboxamide]	94.9
CC1(C)CCC(C)(C)c2cc(Cn3ccc4ccc(C(=O)NO)cc4c3=O)ccc21 [Compound I-88, N-hydroxy-1-oxo-2-[(5,5,8,8-tetramethyl-5,6,7,8-tetrahydronaphthalen-2-yl)methyl]-1,2-dihydroisoquinoline-7-carboxamide]	90
Cc1onc(-c2ccccc2)c1Cn1ccc2ccc(C(=O)NO)cc2c1=O [Compound I-259, N-hydroxy-2-[(5-methyl-3-phenylisoxazol-4-yl)methyl]-1-oxo-1,2-dihydroisoquinoline-7-carboxamide]	96.1
CC(C)(C)OC(=O)N(CCCn1ccc2ccc(C(=O)NO)cc2c1=O)c1ccncc1 [Compound I-89, tert-butyl {3-[7-[(hydroxyamino)carbonyl]-1-oxoisoquinolin-2(1H)-yl]propyl}pyridin-4-ylcarbamate]	95.6
O=C(NO)c1ccc2ccn(CCNc3cccc(-n4cccn4)c3)c(=O)c2c1 [Compound I-108, N-hydroxy-1-oxo-2-(2-{[3-(1H-pyrazol-1-yl)phenyl]amino}ethyl)-1,2-dihydroisoquinoline-7-carboxamide]	91.4
COc1ccc(Nc2nc3cc(C(=O)NO)ccc3c(=O)n2C)cc1 [Compound I-49, N-hydroxy-2-[(4-methoxyphenyl)amino]-3-methyl-4-oxo-3,4-dihydroquinazoline-7-carboxamide]	55
O=C(NO)c1ccc2ccn(CCCC3CCCCC3)c(=O)c2c1 [Compound I-153, 2-(3-cyclohexylpropyl)-N-hydroxy-1-oxo-1,2-dihydroisoquinoline-7-carboxamide]	89.9
O=C(NO)c1ccc2ccn(CCCOc3ccc4c(c3)CCC4)c(=O)c2c1 [Compound I-42, 2-[3-(2,3-dihydro-1H-inden-5-yloxy)propyl]-N-hydroxy-1-oxo-1,2-dihydroisoquinoline-7-carboxamide]	94.4
CC(C)(C)c1ccc(Cn2ccc3ccc(C(=O)NO)cc3c2=O)cc1 [Compound I-267, 2-(4-tert-butylbenzyl)-N-hydroxy-1-oxo-1,2-dihydroisoquinoline-7-carboxamide]	94.8
CCOCCn1cnc2cc(C(=O)NO)ccc2c1=O [Compound I-276, 3-(2-ethoxyethyl)-N-hydroxy-4-oxo-3,4-dihydroquinazoline-7-carboxamide]	88.1
O=C(NO)c1ccc2ccn(CCCOc3ccc(Oc4ccccc4)cc3)c(=O)c2c1 [Compound I-235, N-hydroxy-1-oxo-2-[3-(4-phenoxyphenoxy)propyl]-1,2-dihydroisoquinoline-7-carboxamide]	87.5
CCN(CC)c1nc2ccc(C(=O)NO)cc2c(=O)n1C [Compound I-203, 2-(diethylamino)-N-hydroxy-3-methyl-4-oxo-3,4-dihydroquinazoline-6-carboxamide]	46.4
